The test system of test [1] is non-small cell lung cancer A549 cells. The test can be described thus: In vitro cell inhibition assay, CCK-8 method, A549. It is filed as cell-based, human. To be noted: 48 h incubation. The protocol:
(§1) After the cell culture flasks gently shaking, culture fluid was discarded in clean bench. […] Cells were collected and transferred to centrifuge tube. For the non-adherent cells HL-60, CCRF-CEM and MOLT-4, cell flasks were picked up from incubator and then transferred to the centrifuge tubes directly. After cells were collected using centrifuge at 1000 rpm/min for 5 min, the fluid was discarded. Then cells were washed for one time by PBS, discard fluid. Then add some medium, count cells under inverted microscope using blood cell counting plate, according the counting number to making the density of adherent cell was 1×10^5 cells/mL, the non-adherent cell was 2×10^5 cells/mL (the volumes of HL-60, CCRF-CEM, MOLT-4 are smaller than non-adherent cells, these cells added to each well was much more higher). Add 50 μL aliquots to each well of 96-well plates (the density of adherent cells was 5000 cells/well, non-adherent cells was 10000 cells/well). Blank control, Negative control, blank control with compounds and positive control wells were grouped, and three replicate wells were used for each data point in the experiments. Then the cells were cultured in 5% incubator for overnight at 37° C., Then the different concentration compounds were added to each well. After incubation for 48 h, according to the manufacturer's instructions, CCK-8 reagent (10 μl) was added and incubation was continued for a further 2-4 h. The absorbance (A) of each well was read at 450 nm using a plate reader.

In the next test the test system is leukemia HL-60 cells. The test can be described thus: In vitro cell inhibition assay, CCK-8 method, HL-60. To be noted: HL-60 cells, CCK-8 method. The format is cell-based, human. The protocol:
as §1

Regarding `N#Cc1c(Cl)c(Cl)c(Nc2c(Br)cc(Br)cc2Br)c(C#N)c1Cl` [Compound 6-112], the inhibition at 0.01 µM in test [1] (Homo sapiens, A549, CCK-8, 0.01 μM, read-out: Proliferation inhibitory effect of the compounds on A549 cells (% of Control)) is 46.5%; in the test with leukemia HL-60 cells (Homo sapiens, concentration 0.01 μM, read-out: Proliferation inhibitory effect of the compounds on HL-60 cells (% of Control)), 48.3%. Also, the inhibition at 0.1 µM came out at 47.2% in test [1] (Homo sapiens, A549, CCK-8, 0.1 μM, read-out: Proliferation inhibitory effect of the compounds on A549 cells (% of Control)) and 59.5% with leukemia HL-60 cells (Homo sapiens, concentration 0.1 μM, read-out: Proliferation inhibitory effect of the compounds on HL-60 cells (% of Control)). Moreover, the inhibition at 1 µM in test [1] (Homo sapiens, A549, CCK-8, 1 μM, read-out: Proliferation inhibitory effect of the compounds on A549 cells (% of Control)) was 76.9%; in the test on leukemia HL-60 cells (Homo sapiens, concentration 1 μM, read-out: Proliferation inhibitory effect of the compounds on HL-60 cells (% of Control)) it was 91.5%. For the same compound, the inhibition at 10 µM in test [1] (Homo sapiens, A549, CCK-8, 10 μM, read-out: Proliferation inhibitory effect of the compounds on A549 cells (% of Control)) stood at 89.3%; in the test with leukemia HL-60 cells (Homo sapiens, concentration 10 μM, read-out: Proliferation inhibitory effect of the compounds on HL-60 cells (% of Control)), 97.6%. Moreover, the inhibition at 100 µM in test [1] (Homo sapiens, A549, CCK-8, 100 μM, read-out: Proliferation inhibitory effect of the compounds on A549 cells (% of Control)) was found to be 99.3%; with leukemia HL-60 cells (Homo sapiens, concentration 100 μM, read-out: Proliferation inhibitory effect of the compounds on HL-60 cells (% of Control)) it was 96.5%.
As to `COC(=O)c1ccc(Nc2c(Cl)c(Cl)c(C#N)c(Cl)c2C#N)cc1` [Compound 6-25], the “Proliferation inhibitory effect of the compounds on A549 cells (% of Control)” value is listed as 15.66 % of Control in test [1] (CCK-8, 0.01 μM); 18.59 % of Control in test [1] (CCK-8, 0.1 μM); 17.11 % of Control in test [1] (CCK-8, 1 μM); 55.87 % of Control in test [1] (CCK-8, 10 μM); 81.32 % of Control in test [1] (CCK-8, 100 μM). Further, the “Proliferation inhibitory effect of the compounds on HL-60 cells (% of Control)” value in the test on leukemia HL-60 cells (concentration 0.01 μM) is on record as 11.52 % of Control; with leukemia HL-60 cells (concentration 0.1 μM), 42.54 % of Control; in the test on leukemia HL-60 cells (concentration 1 μM), 84.06 % of Control; with leukemia HL-60 cells (concentration 10 μM), 92.02 % of Control; in the test on leukemia HL-60 cells (concentration 100 μM), 84.30 % of Control.
As to `N#Cc1c(Cl)c(Cl)c(Nc2ccc(C(F)(F)F)cc2)c(C#N)c1Cl` [Compound 6-24], the “Proliferation inhibitory effect of the compounds on A549 cells (% of Control)” value in test [1] (CCK-8, 0.01 μM) is listed as 22.06 % of Control; in test [1] (CCK-8, 0.1 μM), 24.27 % of Control; in test [1] (CCK-8, 1 μM), 31.44 % of Control; in test [1] (CCK-8, 10 μM), 60.31 % of Control; in test [1] (CCK-8, 100 μM), 87.36 % of Control. Also, the “Proliferation inhibitory effect of the compounds on HL-60 cells (% of Control)” value with leukemia HL-60 cells (concentration 0.01 μM) was 0.00 % of Control; with leukemia HL-60 cells (concentration 0.1 μM), 17.55 % of Control; with leukemia HL-60 cells (concentration 1 μM), 48.39 % of Control; with leukemia HL-60 cells (concentration 10 μM), 56.72 % of Control; with leukemia HL-60 cells (concentration 100 μM), 95.11 % of Control.
Turning to `N#Cc1c(Cl)c(Cl)c(Nc2c(Cl)cc(C(F)(F)F)cc2Cl)c(C#N)c1Cl` [Compound 6-95], the “Proliferation inhibitory effect of the compounds on A549 cells (% of Control)” value in test [1] (CCK-8, 0.01 μM) is 39.65 % of Control; in test [1] (CCK-8, 0.1 μM) it was 56.27 % of Control; in test [1] (CCK-8, 1 μM), 78.63 % of Control; in test [1] (CCK-8, 10 μM), 97.88 % of Control; in test [1] (CCK-8, 100 μM), 98.69 % of Control. The “Proliferation inhibitory effect of the compounds on HL-60 cells (% of Control)” value in the test on leukemia HL-60 cells (concentration 0.01 μM) is reported as 0.00 % of Control; in the test with leukemia HL-60 cells (concentration 0.1 μM) it was 43.28 % of Control; with leukemia HL-60 cells (concentration 1 μM) it was 94.76 % of Control; in the test on leukemia HL-60 cells (concentration 10 μM) it was 94.99 % of Control; with leukemia HL-60 cells (concentration 100 μM) it was 96.40 % of Control.
In the case of `N#Cc1c(Cl)c(Cl)c(Nc2ccc(Cl)c(Cl)c2)c(C#N)c1Cl` [Compound 6-43], the “Proliferation inhibitory effect of the compounds on HL-60 cells (% of Control)” value in the test with leukemia HL-60 cells (concentration 0.01 μM) is recorded as 23.65 % of Control; in the test on leukemia HL-60 cells (concentration 0.1 μM), 31.60 % of Control; with leukemia HL-60 cells (concentration 1 μM) it was 38.45 % of Control; in the test on leukemia HL-60 cells (concentration 10 μM), 73.80 % of Control; with leukemia HL-60 cells (concentration 100 μM) it was 78.53 % of Control.
With `N#Cc1c(Cl)c(Cl)c(Nc2c(Cl)cc(Br)cc2Cl)c(C#N)c1Cl` [Compound 6-201], the “Proliferation inhibitory effect of the compounds on A549 cells (% of Control)” value is given as 14.31 % of Control in test [1] (CCK-8, 0.01 μM); 19.63 % of Control in test [1] (CCK-8, 0.1 μM); 26.90 % of Control in test [1] (CCK-8, 1 μM); 60.23 % of Control in test [1] (CCK-8, 10 μM); 83.86 % of Control in test [1] (CCK-8, 100 μM). Further, the “Proliferation inhibitory effect of the compounds on HL-60 cells (% of Control)” value with leukemia HL-60 cells (concentration 0.01 μM) was 40.59 % of Control; in the test with leukemia HL-60 cells (concentration 0.1 μM), 48.61 % of Control; with leukemia HL-60 cells (concentration 1 μM), 75.70 % of Control; with leukemia HL-60 cells (concentration 10 μM), 86.76 % of Control; in the test on leukemia HL-60 cells (concentration 100 μM), 98.14 % of Control.
On to `N#Cc1c(Cl)c(Cl)c(Nc2c(Br)cc(OC(F)(F)F)cc2Br)c(C#N)c1Cl` [Compound 6-111], for which the “Proliferation inhibitory effect of the compounds on A549 cells (% of Control)” value in test [1] (CCK-8, 0.01 μM) was 23.15 % of Control; in test [1] (CCK-8, 0.1 μM) it was 29.42 % of Control; in test [1] (CCK-8, 1 μM), 53.14 % of Control; in test [1] (CCK-8, 10 μM) it was 80.03 % of Control; in test [1] (CCK-8, 100 μM), 99.83 % of Control. The “Proliferation inhibitory effect of the compounds on HL-60 cells (% of Control)” value with leukemia HL-60 cells (concentration 0.01 μM) is reported as 13.70 % of Control; with leukemia HL-60 cells (concentration 0.1 μM) it was 41.52 % of Control; with leukemia HL-60 cells (concentration 1 μM), 79.31 % of Control; in the test with leukemia HL-60 cells (concentration 10 μM), 95.16 % of Control; in the test with leukemia HL-60 cells (concentration 100 μM), 99.28 % of Control.
Turning to `N#Cc1c(Cl)c(Cl)c(Nc2ccc(C(F)(F)F)cc2Cl)c(C#N)c1Cl` [Compound 6-47], the “Proliferation inhibitory effect of the compounds on A549 cells (% of Control)” value is given as 42.56 % of Control in test [1] (CCK-8, 0.01 μM); 49.86 % of Control in test [1] (CCK-8, 0.1 μM); 53.58 % of Control in test [1] (CCK-8, 1 μM); 55.57 % of Control in test [1] (CCK-8, 10 μM); 99.91 % of Control in test [1] (CCK-8, 100 μM). The “Proliferation inhibitory effect of the compounds on HL-60 cells (% of Control)” value with leukemia HL-60 cells (concentration 0.01 μM) is listed as 7.02 % of Control; with leukemia HL-60 cells (concentration 0.1 μM), 34.70 % of Control; with leukemia HL-60 cells (concentration 1 μM) it was 41.47 % of Control; in the test on leukemia HL-60 cells (concentration 10 μM), 83.33 % of Control; in the test on leukemia HL-60 cells (concentration 100 μM), 98.51 % of Control.
In the case of `N#Cc1c(Cl)c(Cl)c(Nc2ccc(Br)cc2Cl)c(C#N)c1Cl` [Compound 6-45], the “Proliferation inhibitory effect of the compounds on HL-60 cells (% of Control)” value in the test with leukemia HL-60 cells (concentration 0.01 μM) is listed as 0.00 % of Control; in the test on leukemia HL-60 cells (concentration 0.1 μM), 27.78 % of Control; in the test on leukemia HL-60 cells (concentration 1 μM), 39.89 % of Control; with leukemia HL-60 cells (concentration 10 μM), 52.09 % of Control; in the test with leukemia HL-60 cells (concentration 100 μM), 80.30 % of Control.

The values are drawn from patent US9376376B2, “Substitute diphenylamine compounds use thereof as antitumor agents” (SINOCHEM CORPORATION, priority 2012, dated 2016).
